# Experimental data published in patent US9546401B2, “Assays and methods for selecting a treatment regimen for a subject with depression” (The General Hospital Corporation, priority 2011, dated 2017).
# Read-outs that look alike come from different tables or passages of the source.
# Test system: MDD patients carrying the indicated biomarkers
# Conditions: for HAMD-17 change, Effect / HAMD-28 change, Effect: + SSRI
# Method: Folate levels are classified as either low (<=2.5 ng/ml) or normal; and homocysteine levels as either normal or elevated (>=[…]). The presence or absence of at least one […] allele for the MTHFR gene are entered as a dichotomous variable (present or absent). […] Using folate as an example predicator, the presence or absence of a low serum-folate level along with treatment assignment can be entered in a 2×2, factorial ANOVA, using depression improvement scores (baseline minus endpoint HAM-D-17 scores) as the dependant variable. […] Similar analyses (i.e. separate 2×2 ANOVA's) can be performed substituting the presence of low folate levels for the presence of other predictors as described herein. Similarly, the effect of other predictors can be indicated by the interaction term representing the potential modulating influence of those variables.
# The efficacy effect is determined by measuring the mean change in the HAMD-17 score and HAMD-28 score by the end of Phase I and Phase II, as compared to the baseline.
# [1] = A + B: BMI > 30 & LOW SAM/SAH RATIO, N = 13
# [2] = A + C: BMI > 30 & HIGH 4-HNE, N = 12
# [3] = A + D: BMI > 30 & MTHFR 677 CT/TT, N = 9
# [4] = A + E + F: BMI > 30 & MTR 2756 AG/GG & MTRR 66 AG/GG, N = 4
# [5] = A + E: BMI > 30 & MTR 2756 AG/GG, N = 5
# [6] = B + C: LOW SAM/SAH RATIO & HIGH 4-HNE, N = 11
# [7] = B + E + F: LOW SAM/SAH RATIO & MTR 2756 AG/GG & MTRR 66 AG/GG, N = 5
# [8] = B + E: LOW SAM/SAH RATIO & MTR 2756 AG/GG, N = 6
# [9] = B + F: LOW SAM/SAH RATIO & MTRR 66 AG/GG, N = 11
# [10] = C + D: HIGH 4-HNE & MTHFR 677 CT/TT, N = 8
# [11] = C + E + F: HIGH 4-HNE & MTR 2756 AG/GG & MTRR 66 AG/GG, N = 4
# [12] = C + E: HIGH 4-HNE & MTR 2756 AG/GG, N = 9
# [13] = C + F: HIGH 4-HNE & MTRR 66 AG/GG, N = 15
# [14] = D + E: MTHFR 677 CT/TT & MTR 2756 AG/GG, N = 4
# [15] = E + F: MTR 2756 AG/GG & MTRR 66 AG/GG, N = 8
# [16] = MTHFR 677 CC and MTR 2756 AA, Phase I
# [17] = MTHFR 677 CC and MTR 2756 AA, Phase II
# [18] = MTHFR 677 CC and MTR 2756 AA, Pooled phases
# [19] = MTHFR 677 CT or TT and MTR 2756 AG or GG, Phase I
# [20] = MTHFR 677 CT or TT and MTR 2756 AG or GG, Phase II
# [21] = MTHFR 677 CT or TT and MTR 2756 AG or GG, Pooled phases
# [22] = MTR 2756 AA and MTRR 66 AA and BMI < 30 kg/m^2, Phase II
# [23] = MTR 2756 AG or GG and MTRR 66 AG or GG and BMI >= 30 kg/m^2, Phase I
# [24] = MTR 2756 AG or GG and MTRR 66 AG or GG and BMI >= 30 kg/m^2, Phase II
# [25] = MTR 2756 AG or GG and MTRR 66 AG or GG and BMI >= 30 kg/m^2, Pooled phases
smiles,measurement,setting,value
"CN1c2c(nc(N)[nH]c2=O)NC[C@@H]1CNc1ccc(C(=O)N[C@@H](CCC(=O)O)C(=O)O)cc1 [6(S)-5-MTHF, 6(S)-5-methyltetrahydrofolate]",Pooled Effect Size HAMD-17,[1],−7.302
same,Pooled Effect Size HAMD-28,[1],−7.572
same,Pooled Effect Size HAMD-17,[2],−5.420
same,Pooled Effect Size HAMD-28,[2],−5.996
same,Pooled Effect Size HAMD-17,[3],−8.090
same,Pooled Effect Size HAMD-28,[3],−9.884
same,Pooled Effect Size HAMD-17,[4],−10.972
same,Pooled Effect Size HAMD-28,[4],−15.347
same,Pooled Effect Size HAMD-17,[5],−11.714
same,Pooled Effect Size HAMD-28,[5],−14.433
same,Pooled Effect Size HAMD-17,"A: BMI > 30, N = 21",−4.600
same,Pooled Effect Size HAMD-28,"A: BMI > 30, N = 21",−4.660
same,Pooled Effect Size HAMD-17,[6],−9.898
same,Pooled Effect Size HAMD-28,[6],9.500
same,Pooled Effect Size HAMD-17,[7],−7.640
same,Pooled Effect Size HAMD-28,[7],−11.620
same,Pooled Effect Size HAMD-17,[8],−5.583
same,Pooled Effect Size HAMD-28,[8],−11.683
same,Pooled Effect Size HAMD-17,[9],−5.879
same,Pooled Effect Size HAMD-28,[9],−6.879
same,Pooled Effect Size HAMD-17,"B: LOW SAM/SAH RATIO, N = 18",−3.622
same,Pooled Effect Size HAMD-28,"B: LOW SAM/SAH RATIO, N = 18",−4.572
same,Pooled Effect Size HAMD-17,[10],−9.446
same,Pooled Effect Size HAMD-28,[10],−9.865
same,Pooled Effect Size HAMD-17,[11],−7.942
same,Pooled Effect Size HAMD-28,[11],−10.241
same,Pooled Effect Size HAMD-17,[12],−8.072
same,Pooled Effect Size HAMD-28,[12],−9.508
same,Pooled Effect Size HAMD-17,[13],−4.850
same,Pooled Effect Size HAMD-28,[13],−6.582
same,Pooled Effect Size HAMD-17,"C: HIGH 4-HNE, N = 21",−4.175
same,Pooled Effect Size HAMD-28,"C: HIGH 4-HNE, N = 21",4.554
same,Pooled Effect Size HAMD-17,[14],−18.710
same,Pooled Effect Size HAMD-28,[14],−23.290
same,Pooled Effect Size HAMD-17,[15],−6.976
same,Pooled Effect Size HAMD-28,[15],−9.348
same,Pooled Effect Size HAMD-17,"E: MTR 2756 AG/GG, N = 11",−5.677
same,Pooled Effect Size HAMD-28,"E: MTR 2756 AG/GG, N = 11",−8.243
same,effect in carriers of both variants relative to the sum of the individual biomarker effects,"HAMD-28 mean change, MTHFR T + MTR G",at least 2 fold
same,"HAMD-17 change, Effect",[16],−0.700
same,"HAMD-28 change, Effect",[16],−0.192
same,"HAMD-17 change, Effect",[17],−0.571
same,"HAMD-28 change, Effect",[17],0.048
same,"HAMD-17 change, Effect",[18],0.722
same,"HAMD-28 change, Effect",[18],0.711
same,"HAMD-17 change, Effect",[19],−13.47
same,"HAMD-28 change, Effect",[19],−18.00
same,"HAMD-17 change, Effect",[20],−10.33
same,"HAMD-28 change, Effect",[20],−13.00
same,"HAMD-17 change, Effect",[21],−18.71
same,"HAMD-28 change, Effect",[21],−23.29
same,"HAMD-17 change, Effect",[22],−4.333
same,"HAMD-28 change, Effect",[22],−4.667
same,"HAMD-17 change, Effect",[23],−13.667
same,"HAMD-28 change, Effect",[23],−18.833
same,"HAMD-17 change, Effect",[24],−11.000
same,"HAMD-28 change, Effect",[24],−12.000
same,"HAMD-17 change, Effect",[25],−10.972
same,"HAMD-28 change, Effect",[25],−15.347
same,Pooled Effect Size HAMD-17,"OVERALL, N = 73",−2.264
same,Pooled Effect Size HAMD-28,"OVERALL, N = 73",−2.738
same,Effect on change in HAMD-17 score,"Phase I, 25 =< BMI < 30 kg/m^2",2.600
same,Effect on change in HAMD-28 score,"Phase I, 25 =< BMI < 30 kg/m^2",2.602
same,Effect on change in HAMD-17 score,"Phase I, BMI < 25",1.576
same,Effect on change in HAMD-28 score,"Phase I, BMI < 25",0.909
same,Effect on change in HAMD-17 score,"Phase I, BMI < 30 kg/m^2 and HNE-His < median",3.771
